Literature values as cited in PubChem BioAssay AID1259409 (Chemical Carcinogenesis Research Information System (CCRIS), 2018).

System: rodent chemically induced tumor inhibition, incidence and multiplicity
Assay: CCRIS tumor inhibitor studies

SMILES: Cc1cc(C(C)(C)C)c(O)c(C(C)(C)C)c1
- tumour outcome (control, treated, inhibition, significance) (Carcinogen: 1,2-DIMETHYLHYDRAZINE DIHYDROCHLORIDE, 306-37-6, Dose [Inhibitor]: 6600 PPM IN DIET FOR 23 WK (STUDY DURATION: 23 WK), Route [Inhibitor]: ORAL, Species: RAT, Strain/Sex: SPRAGUE-DAWLEY MALE, Target Tissue: Type of Lesion: CECUM: TUMOR, Dose [Carcinogen]: 30 MG/KG IN SALINE 1/WK FOR THE FIRST 9 WK OF STUDY (10 DOSES), SIMULTANEOUSLY WITH INHIBITOR, Promoter: NONE USED): 1/10 (10%), 4/9 (44%), -340%, not calculated
- tumour outcome (control, treated, inhibition, significance) (Carcinogen: 1,2-DIMETHYLHYDRAZINE DIHYDROCHLORIDE, 306-37-6, Dose [Inhibitor]: 6600 PPM IN DIET FOR 23 WK (STUDY DURATION: 23 WK), Route [Inhibitor]: ORAL, Species: RAT, Strain/Sex: SPRAGUE-DAWLEY MALE, Target Tissue: Type of Lesion: COLON: TUMOR, Dose [Carcinogen]: 30 MG/KG IN SALINE 1/WK FOR THE FIRST 9 WK OF STUDY (10 DOSES), SIMULTANEOUSLY WITH INHIBITOR, Promoter: NONE USED): 10/10 (100%), 9/9 (100%), 0%, not calculated
- tumour outcome (control, treated, inhibition, significance) (Carcinogen: 1,2-DIMETHYLHYDRAZINE DIHYDROCHLORIDE, 306-37-6, Dose [Inhibitor]: 6600 PPM IN DIET FOR 23 WK (STUDY DURATION: 23 WK), Route [Inhibitor]: ORAL, Species: RAT, Strain/Sex: SPRAGUE-DAWLEY MALE, Target Tissue: Type of Lesion: DUODENUM: TUMOR, Dose [Carcinogen]: 30 MG/KG IN SALINE 1/WK FOR THE FIRST 9 WK OF STUDY (10 DOSES), SIMULTANEOUSLY WITH INHIBITOR, Promoter: NONE USED): 8/10 (80%), 5/9 (56%), 30%, not calculated
- tumour outcome (control, treated, inhibition, significance) (Carcinogen: 1,2-DIMETHYLHYDRAZINE, 540-73-8, Dose [Inhibitor]: 0, 0.5% IN DIET BEGINNING 1 WK POST LAST CARCINOGEN DOSE AND CONTINUING FOR 36 WK (STUDY DURATION: 40 WK), Route [Inhibitor]: ORAL, Species: RAT, Strain/Sex: F344/MALE, Target Tissue: Type of Lesion: COLON: ADENOMA, Dose [Carcinogen]: 20 MG/KG 1/WK FOR 4 WK, Promoter: NONE USED): 5/18 (28%), 4/19 (21%), 25%, not calculated
- tumour outcome (control, treated, inhibition, significance) (Carcinogen: 1,2-DIMETHYLHYDRAZINE, 540-73-8, Dose [Inhibitor]: 0, 0.5% IN DIET BEGINNING 1 WK POST LAST CARCINOGEN DOSE AND CONTINUING FOR 36 WK (STUDY DURATION: 40 WK), Route [Inhibitor]: ORAL, Species: RAT, Strain/Sex: F344/MALE, Target Tissue: Type of Lesion: COLON: CARCINOMA, Dose [Carcinogen]: 20 MG/KG 1/WK FOR 4 WK, Promoter: NONE USED): 7/18 (39%), 9/19 (48%), -23%, not calculated
- tumour outcome (control, treated, inhibition, significance) (Carcinogen: 1,2-DIMETHYLHYDRAZINE, 540-73-8, Dose [Inhibitor]: 0, 250 MG/KG BW IN CORN OIL 1/D FOR 2 WK PRIOR TO FIRST CARCINOGEN DOSE THEN 3/WK FOR DURATION OF STUDY (STUDY DURATION:, Route [Inhibitor]: GAVAGE, Species: RAT, Strain/Sex: BD6/MALE, Target Tissue: Type of Lesion: INTESTINE: TUMOR, Dose [Carcinogen]: 20 MG/KG BW 1/WK FOR 20 WK, Promoter: NONE USED): 100%, 100%, 0%, not significant
- tumour outcome (control, treated, inhibition, significance) (Carcinogen: 1,2-DIMETHYLHYDRAZINE, 540-73-8, Dose [Inhibitor]: 0.5% IN DIET STARTING 2 WK PRIOR TO CARCINOGEN TREATMENT AND CONTINUING FOR DURATION OF STUDY (STUDY DURATION: 28 WK), Route [Inhibitor]: ORAL, Species: RAT, Strain/Sex: SPRAGUE-DAWLEY/MALE, Target Tissue: Type of Lesion: COLON: ADENOCARCINOMA, Dose [Carcinogen]: 20 MG/KG BW IN BACTERIOSTATIC SALINE 1/WK FOR 20 WK, Promoter: NONE USED): 9/14 (64%), 3/7 (43%), 33%, not calculated
- tumour outcome (control, treated, inhibition, significance) (Carcinogen: 1,2-DIMETHYLHYDRAZINE, 540-73-8, Dose [Inhibitor]: 0.75% IN DIET FOR LIFE BEGINNING AT 8 WK OF AGE (STUDY DURATION: 10 MO POST FIRST CARCINOGEN TREATMENT), Route [Inhibitor]: ORAL, Species: MOUSE, Strain/Sex: BALB/FEMALE, Target Tissue: Type of Lesion: LARGE INTESTINE: TUMOR, Dose [Carcinogen]: 20 MG/KG BW IN SALINE FOR 10 WK BEGINNING AT 11 WK OF AGE, Promoter: NONE USED): 9/18 (50%), 15/25 (60%), -20%, not significant
- tumour outcome (control, treated, inhibition, significance) (Carcinogen: 1,2-DIMETHYLHYDRAZINE, 540-73-8, Dose [Inhibitor]: 0.75% IN DIET FOR LIFE BEGINNING AT 8 WK OF AGE (STUDY DURATION: 10 MO POST FIRST CARCINOGEN TREATMENT), Route [Inhibitor]: ORAL, Species: MOUSE, Strain/Sex: BALB/MALE, Target Tissue: Type of Lesion: LARGE INTESTINE: TUMOR, Dose [Carcinogen]: 20 MG/KG BODY WEIGHT IN SALINE FOR 10 WK BEGINNING AT 11 WK OF AGE, Promoter: NONE USED): 15/20 (75%), 12/35 (34%), 55%, p=0.0036
- tumour outcome (control, treated, inhibition, significance) (Carcinogen: 2-ACETYLAMINOFLUORENE, 53-96-3, Dose [Inhibitor]: 0, 100 PPM IN DIET CONCURRENTLY WITH CARCINOGEN FOR STUDY DURATION (STUDY DURATION: 76 WK), Route [Inhibitor]: ORAL, Species: RAT, Strain/Sex: F344/MALE, Target Tissue: Type of Lesion: LIVER: HEPATOCELLULAR TUMOR, Dose [Carcinogen]: 50 PPM IN DIET FOR 76 WK): 20/20 (100%), 18/18 (100%), 0%, not calculated
- tumour outcome (control, treated, inhibition, significance) (Carcinogen: 2-ACETYLAMINOFLUORENE, 53-96-3, Dose [Inhibitor]: 0, 100 PPM IN SEMISYNTHETIC DIET CONCURRENTLY WITH CARCINOGEN FOR STUDY DURATION (STUDY DURATION: 76 WK), Route [Inhibitor]: ORAL, Species: RAT, Strain/Sex: F344/MALE, Target Tissue: Type of Lesion: BLADDER: CARCINOMA, Dose [Carcinogen]: 50 PPM IN DIET FOR 76 WK): 1/17 (6%), 0/16 (0%), 100%, not calculated
- tumour outcome (control, treated, inhibition, significance) (Carcinogen: 2-ACETYLAMINOFLUORENE, 53-96-3, Dose [Inhibitor]: 0, 100 PPM IN SEMISYNTHETIC DIET CONCURRENTLY WITH CARCINOGEN FOR STUDY DURATION (STUDY DURATION: 76 WK), Route [Inhibitor]: ORAL, Species: RAT, Strain/Sex: F344/MALE, Target Tissue: Type of Lesion: LIVER: HEPATOCELLULAR TUMORS, Dose [Carcinogen]: 50 PPM IN DIET FOR 76 WK): 17/17 (100%), 16/16 (100%), 0%, not significant
- outcome (Carcinogen: 2-ACETYLAMINOFLUORENE, 53-96-3, Dose [Inhibitor]: 0, 300 PPM IN DIET CONCURRENTLY WITH CARCINOGEN FOR STUDY DURATION (STUDY DURATION: 76 WK), Route [Inhibitor]: ORAL, Species: RAT, Strain/Sex: F344/MALE, Target Tissue: Type of Lesion: LIVER: ADENOMA, Dose [Carcinogen]: 50 PPM IN DIET FOR 76 WK): 19.2, 13.4, 30%, p<0.05
- tumour outcome (control, treated, inhibition, significance) (Carcinogen: 2-ACETYLAMINOFLUORENE, 53-96-3, Dose [Inhibitor]: 0, 300 PPM IN DIET CONCURRENTLY WITH CARCINOGEN FOR STUDY DURATION (STUDY DURATION: 76 WK), Route [Inhibitor]: ORAL, Species: RAT, Strain/Sex: F344/MALE, Target Tissue: Type of Lesion: LIVER: HEPATOCELLULAR TUMOR, Dose [Carcinogen]: 50 PPM IN DIET FOR 76 WK): 20/20 (100%), 17/17 (100%), 0%, not calculated
- tumour outcome (control, treated, inhibition, significance) (Carcinogen: 2-ACETYLAMINOFLUORENE, 53-96-3, Dose [Inhibitor]: 0, 1000 PPM IN DIET CONCURRENTLY WITH CARCINOGEN FOR STUDY DURATION (STUDY DURATION: 76 WK), Route [Inhibitor]: ORAL, Species: RAT, Strain/Sex: F344/MALE, Target Tissue: Type of Lesion: LIVER: HEPATOCELLULAR TUMOR, Dose [Carcinogen]: 50 PPM IN DIET FOR 76 WK): 20/20 (100%), 19/19 (100%), 0%, not calculated
